According to US20150259331A1, “PROTOZOAN PARASITE GROWTH INHIBITORS” (Northeastern University, priority 2014, published 2015):
Where two headings read alike, the source gives them in different places.

Key:
[1] = system: endocytosis of transferrin; assay: Receptor-mediated endocytosis of transferrin in the trypanosome; assay type: cell-based, T. brucei
[2] = system: P. fal; assay: P. fal assay of Table 13 (strain not given); assay type: cell-based, P. falciparum
[3] = system: L. major amastigote; assay: L. major amastigote assay; assay type: cell-based
[4] = not given; remark: listed apart in the source
[5] = system: HepG2 cells; assay: HepG2 cell toxicity (MTT) assay; assay type: cell-based; conditions: Table 13; read-out: HepG2 TC50
[6] = system: T. cruzi; assay: T. cruzi growth inhibition; assay type: cell-based, Trypanosoma cruzi
[7] = system: T. brucei brucei Lister 427; assay: Trypanosome replication assay; assay type: cell-based, Trypanosoma brucei brucei; conditions: for EC50: 48 h, values ±7%; for inhibition at 5 µM: read-out: Tbb % inh at 5 μM
[8] = system: L. major promastigote; assay: L. major promastigote assay; assay type: cell-based
[9] = Protein binding (Table 14); conditions: plasma
[10] = Male rat hepatocytes CLint
[11] = Thermodynamic aqueous solubility; assay type: physicochemical
[12] = logD; assay type: physicochemical
[13] = Human liver microsomes CLint
[14] = HepG2 cell toxicity (MTT) assay; assay type: cell-based; conditions: human, HepG2 cells; Table 13; read-out: HepG2 TC50
[15] = system: T. brucei brucei Lister 427; conditions: published activities of HAT treatments and SCYX-7158; read-out: Tbb EC50; cited from earlier work
[16] = in vitro; conditions: male, BALB/c, mouse
Procedure: Mice plasma (BALB/c mice, male—pool of 3 animals) was collected in-house using K2EDTA as anticoagulant. […] Glipizide (Cat #50402G) was purchased from Apin chemicals, Abingdon, Oxon. Albendazole (Cat #A4673) was purchased from Sigma. Phosphate buffered saline pH 7.4 (0.1 M sodium phosphate and 0.15 M sodium chloride) and RED device inserts were procured from Thermo Scientific, Meridian Rd., Rockford, Ill.
Further 1 mM stock was diluted 200-fold in mice plasma to prepare a concentration of 5 μM. The final DMSO concentration in plasma was 0.5%.
Rapid equilibrium dialysis was performed with a rapid equilibrium dialysis (RED) device containing dialysis membrane with a molecular weight cut-off of 8,000 Daltons. Each dialysis insert contains two chambers. The red chamber is for plasma while the white chamber is for buffer. A 200 μL aliquot of warfarin or test compound at 5 μM (triplicates) was separately added to the plasma chamber and 350 μL of phosphate buffer saline (pH 7.4) was added to the buffer chamber of the inserts. After sealing the RED device with an adhesive film, dialysis was performed at 37° C. with shaking at 100 rpm for 4 hours as per manufacturer's recommendation.
Recovery and stability: A 50 μL aliquot of warfarin or test compound was added to four 0.5 mL microfuse tubes. Two aliquots were frozen immediately (0 minute sample). The other two aliquots were incubated at 37° C. for 4 hours along with the RED device.
Following dialysis, an aliquot of 50 μL was removed from each well (both plasma and buffer side) and diluted with equal volume of opposite matrix (dialyzed with the other matrix) to nullify the matrix effect. Similarly, 50 μL of buffer was added to recovery and stability samples. An aliquot of 100 μL was submitted for LC-MS/MS analysis.
A 25 μL aliquot of warfarin and test compounds were crashed with 100 μL of acetonitrile containing internal standard (glipizide for warfarin and test compound) and vortexed for 5 minutes. The samples were centrifuged at 15,000 rpm at 4° C. for 10 min and 100 μL of supernatant was submitted for LCMS/MS analysis. Samples were monitored for parent compound in MRM mode using LC-MS/MS.

[17] = Trypanosoma brucei, concentration giving 50% inhibition of growth of T brucei brucei Lister 427 cells, read-out: Tbb EC50
[18] = Trypanosoma brucei, read-out: Tbb EC50, concentration giving 50% inhibition of growth of T brucei brucei Lister 427 cells

Row | SMILES | CC50 [5] [µM] | EC50 ([2]; Plasmodium falciparum) [µM] | EC50 ([3]; Leishmania major) [µM] | EC50 ([6]; Trypanosoma cruzi) [µM] | EC50 ([8]; Leishmania major) [µM] | other results
1 | CS(=O)(=O)CCNCc1ccc(-c2ccc3ncnc(Nc4ccc(OCc5cccc(F)c5)c(Cl)c4)c3c2)o1 [Compound 1, lapatinib, reference compound] |  |  |  |  |  | effect on endocytosis of transferrin [1]: inhibited endocytosis of transferrin
2 | CN1CCCN(S(=O)(=O)c2ccc(-c3ccc4ncc(C#N)c(Nc5ccc(OCc6cccc(F)c6)c(Cl)c5)c4c3)cc2)CC1 [NEU-924] | > 15 |  |  |  |  | Male rat hepatocytes median CLint: 37.95 μl/min/1E6 cells; EC50 [2]: 0.047 µM; EC50 [3]: 1.6 µM; Human liver microsomes median CLint [4]: 151.8 µL/min/mg; EC50 [6]: 0.09 µM; EC50 ([7]; concentration giving 50% inhibition of growth of T brucei brucei Lister 427 cells, read-out: Tbb EC50): 0.35 µM; EC50 [8]: 0.92 µM
3 | O=S(=O)(c1ccc(-c2ccc3nccc(Nc4ccc(OCc5ccccc5)c(Cl)c4)c3c2)cc1)N1CCOCC1 [NEU-945, N-(4-(Benzyloxy)-3-chlorophenyl)-6-(4-(morpholinosulfonyl)phenyl)quinolin-4-amine] | > 5 | 0.032 | > 3 | 49 | 0.2 | fraction unbound [9]: < 0.01; Male rat hepatocytes median CLint [10]: 13.93 μl/min/1E6 cells; Solubility [11]: <1 µM; logD [12]: 3.5; Human liver microsomes median CLint [13]: 78.87 µL/min/mg; EC50 [7, 17]: 2.1 µM
4 | Fc1cccc(COc2ccc(Nc3nccc4cc(-c5cccc(N6CCOCC6)c5)ccc34)cc2Cl)c1 [NEU-946, N-(3-Chloro-4-((3-fluorobenzyl)oxy)phenyl)-6-(3-morpholinophenyl)isoquinolin-1-amine] |  | 2.8 | 2.2 | > 50 | > 15 | CC50 at 48 h [14]: > 15 µM; inhibition at 5 µM ([7]; Trypanosoma brucei): 12%
5 | Fc1cccc(COc2ccc(Nc3nccc4ccc(-c5cccc(N6CCOCC6)c5)cc34)cc2Cl)c1 [NEU-947, N-(3-Chloro-4-((3-fluorobenzyl)oxy)phenyl)-7-(3-morpholinophenyl)isoquinolin-1-amine] |  | 2.5 | 6 | > 50 | > 15 | CC50 at 48 h [14]: > 15 µM; inhibition at 5 µM ([7]; Trypanosoma brucei): 0.1%
6 | O=S(=O)(c1ccc(-c2ccc3ccnc(Nc4ccc(OCc5ccccc5)c(Cl)c4)c3c2)cc1)N1CCOCC1 [NEU-949, N-(4-(Benzyloxy)-3-chlorophenyl)-7-(4-(morpholinosulfonyl)phenyl)isoquinolin-1-amine] |  | 0.87 | > 15 | > 50 | > 15 | CC50 at 48 h [14]: > 15 µM; EC50 [7, 17]: > 2.5 µM
7 | CN1CCN(S(=O)(=O)c2ccc(-c3ccc4c(Nc5ccc(OCc6cccc(F)c6)c(Cl)c5)ccnc4c3)cc2)CC1 [NEU-961, N-(3-Chloro-4-((3-fluorobenzyl)oxy)phenyl)-7-(4-((4-methylpiperazin-1-yl)sulfonyl)phenyl)quinolin-4-amine] | > 4 | 0.019 | 1.6 | 0.73 | 1 | fraction unbound [9]: < 0.01; Male rat hepatocytes median CLint [10]: 20.24 μl/min/1E6 cells; Human liver microsomes median CLint [13]: 142.7 µL/min/mg; EC50 [7, 17]: 0.079 µM
8 | CN1CCCN(S(=O)(=O)c2ccc(-c3ccc4c(Nc5ccc(OCc6cccc(F)c6)c(Cl)c5)cnnc4c3)cc2)CC1 [NEU-1017, N-(3-Chloro-4-((3-fluorobenzyl)oxy)phenyl)-7-(4-((4-methyl-1,4-diazepan-1-yl)sulfonyl)phenyl)cinnolin-4-amine] | 15 | 0.003 | 0.24 | 49 | 6.4 | fraction unbound [9]: < 0.01; Male rat hepatocytes median CLint [10]: 36.72 μl/min/1E6 cells; Solubility [11]: <1 µM; Human liver microsomes median CLint [13]: 99.32 µL/min/mg; EC50 [7, 17]: 0.21 µM
9 | O=S(=O)(c1ccc(-c2ccc3c(Nc4ccc(OCc5ccccc5)c(Cl)c4)nncc3c2)cc1)N1CCOCC1 [NEU-1039, N-(4-(Benzyloxy)-3-chlorophenyl)-6-(4-(morpholinosulfonyl)phenyl)phthalazin-1-amine] | > 15 | 0.11 | > 15 | > 50 | > 15 | EC50 [7, 17]: 0.99 µM
10 | CN1CCN(S(=O)(=O)c2ccc(-c3ccc4c(Nc5ccc(OCc6cccc(F)c6)c(Cl)c5)nncc4c3)cc2)CC1 [NEU-1041, N-(3-Chloro-4-((3-fluorobenzyl)oxy)phenyl)-6-(4-((4-methylpiperazin-1-yl)sulfonyl)phenyl)phthalazin-1-amine, Formic Acid] | > 15 | 0.045 | > 15 | 18 | 1.3 | EC50 [7, 18]: 1.2 µM
11 | CN1CCCN(S(=O)(=O)c2ccc(-c3ccc4c(Nc5ccc(OCc6cccc(F)c6)c(Cl)c5)nncc4c3)cc2)CC1 [NEU-1042, N-(3-Chloro-4-((3-fluorobenzyl)oxy)phenyl)-6-(4-((4-methyl-1,4-diazepan-1-yl)sulfonyl)phenyl)phthalazin-1-amine, Formic Acid] | 3.4 | 0.029 | 1.1 | 1.3 | 0.41 | EC50 [7, 18]: 0.51 µM
12 | CN1CCN(S(=O)(=O)c2ccc(-c3ccc4cnnc(Nc5ccc(OCc6cccc(F)c6)c(Cl)c5)c4c3)cc2)CC1 [NEU-1043, N-(3-Chloro-4-((3-fluorobenzyl)oxy)phenyl)-7-(4-((4-methylpiperazin-1-yl)sulfonyl)phenyl)phthalazin-1-amine, Formic Acid] | > 5 | 0.13 | > 4 | > 50 | > 3.2 | EC50 [7, 18]: 2 µM
13 | CN1CCCN(S(=O)(=O)c2ccc(-c3ccc4cnnc(Nc5ccc(OCc6cccc(F)c6)c(Cl)c5)c4c3)cc2)CC1 [NEU-1044, N-(3-Chloro-4-((3-fluorobenzyl)oxy)phenyl)-7-(4-((4-methyl-1,4-diazepan-1-yl)sulfonyl)phenyl)phthalazin-1-amine, Formic Acid] | 14 | 0.094 | 5.6 | 17 | > 15 | EC50 [7, 18]: 0.62 µM
14 | CC1(C)OB(O)c2cc(NC(=O)c3ccc(F)cc3C(F)(F)F)ccc21 [SCYX-7158] |  |  |  |  |  | EC50 [15]: 0.794 µM
15 | CC(=O)CC(c1ccccc1)c1c(O)c2ccccc2oc1=O (stereo not drawn) [Warfarin] |  |  |  |  |  | recovery at 4 h, 5 μM ([16]; pH 7.4): 95%; % compound remaining at 4 h ([16]; plasma, 4 h, 5 μM): 100%; fraction unbound at 4 h, 5 μM ([16]; plasma, pH 7.4, % Bound Mean (SD)): 0.156; fraction unbound at 4 h, 5 μM ([16]; plasma, pH 7.4, % Bound R1): 0.051; fraction unbound at 4 h, 5 μM ([16]; plasma, pH 7.4, % Bound R2): 0.058; fraction unbound at 4 h, 5 μM ([16]; plasma, pH 7.4, % Bound R3): 0.059
16 | Nc1nc(N)nc(Nc2ccc([As]3SCC(CO)S3)cc2)n1 (stereo not drawn) [melarsoprol] |  |  |  |  |  | EC50 [15]: 0.0063 µM
17 | N=C(N)c1ccc(OCCCCCOc2ccc(C(=N)N)cc2)cc1 [pentamidine] |  |  |  |  |  | EC50 [15]: 0.0035 µM
